In ChEMBL document CHEMBL1201862, “PubChem BioAssay data set” (2004):
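Method: 48-hour compound exposure of cells in 96-well plates, five concentrations, linear interpolation of endpoints. Here, GI50 denotes the concentration required for 50% inhibition of growth.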 Active and inactive are the calls of the source. No stated cut-off is given here; in the data, active = GI50 up to about 1.1 µM and inactive = higher.

Tests used:
Experiment in all cases: NCI tumour cell line growth inhibition, 48 h
786-0 = system: 786-0
A498 = system: A498
A549 = system: A549
ACHN = system: ACHN
CAKI-1 = system: CAKI-1
CCRF-CEM = system: CCRF-CEM
COLO 205 = system: COLO 205
DLD-1 = system: DLD-1
DMS-114 = system: DMS-114
DMS-273 = system: DMS-273
EKVX = system: EKVX
HCC 2998 = system: HCC 2998
HCT-116 = system: HCT-116
HCT-15 = system: HCT-15
HL-60 = system: HL-60
HOP-18 = system: HOP-18
HOP-62 = system: HOP-62
HOP-92 = system: HOP-92
HT-29 = system: HT-29
IGROV-1 = system: IGROV-1
K562 = system: K562
KM-20L2 = system: KM-20L2
KM12 = system: KM12
LOX IMVI = system: LOX IMVI
LXFL 529 = system: LXFL 529
M14 = system: M14
M19-MEL = system: M19-MEL
MOLT-4 = system: MOLT-4
Malme-3M = system: Malme-3M
NCI-H226 = system: NCI-H226
NCI-H23 = system: NCI-H23
NCI-H460 = system: NCI-H460
NCI-H522 = system: NCI-H522
OVCAR-3 = system: OVCAR-3
OVCAR-4 = system: OVCAR-4
OVCAR-5 = system: OVCAR-5
OVCAR-8 = system: OVCAR-8
RPMI-8226 = system: RPMI-8226
RXF 393 = system: RXF 393
RXF 631 = system: RXF 631
SF-268 = system: SF-268
SF-295 = system: SF-295
SF-539 = system: SF-539
SK-MEL-28 = system: SK-MEL-28
SK-MEL-2 = system: SK-MEL-2
SK-MEL-5 = system: SK-MEL-5
SK-OV-3 = system: SK-OV-3
SN12C = system: SN12C
SNB-19 = system: SNB-19
SNB-75 = system: SNB-75
SNB-78 = system: SNB-78
SW-620 = system: SW-620
TK-10 = system: TK-10
U-251 = system: U-251
UACC-257 = system: UACC-257
UACC-62 = system: UACC-62
UO-31 = system: UO-31
XF498 = system: XF498
SR = system: SR

In the case of `CC12CCCCC1(C)C2Sc1ccccc1` (centres undefined), the GI50 (786-0) is reported as 44.8 µM (inactive), the GI50 (A498) is reported as > 50.4 µM (inactive) and the GI50 (A549) is reported as 43.6 µM (inactive). The GI50 (ACHN) was 46.2 µM (inactive), the GI50 (CAKI-1) was > 56.1 µM (inactive) and the GI50 (CCRF-CEM) was 19.7 µM (inactive). For the same compound, the GI50 (COLO 205) was > 65.3 µM (inactive), the GI50 (DLD-1) was 61.2 µM (inactive) and the GI50 (DMS-114) was 30.7 µM (inactive). For the same compound, the GI50 (DMS-273) was 47.2 µM (inactive), the GI50 (EKVX) was > 57.3 µM (inactive) and the GI50 (HCC 2998) was 31.4 µM (inactive). For the same compound, the GI50 (HCT-116) was 38.1 µM (inactive), the GI50 (HCT-15) was 55.5 µM and the GI50 (HL-60) was 17.5 µM (inactive). The GI50 (HOP-18) was 63.1 µM (inactive), the GI50 (HOP-62) was > 100 µM (inactive) and the GI50 (HOP-92) was 26.7 µM (inactive). The GI50 (HT-29) was 37.2 µM (inactive), the GI50 (IGROV-1) was > 81.7 µM (inactive) and the GI50 (K562) was 13.5 µM (inactive). For the same compound, the GI50 (KM-20L2) was > 100 µM (inactive), the GI50 (KM12) was 49.3 µM (inactive) and the GI50 (LOX IMVI) was 29.9 µM (inactive). The GI50 (LXFL 529) was 63.8 µM (inactive), the GI50 (M14) was 88.5 µM (inactive) and the GI50 (M19-MEL) was 35.9 µM (inactive). The GI50 (MOLT-4) was 19.1 µM (inactive), the GI50 (Malme-3M) was 63 µM (inactive) and the GI50 (NCI-H226) was 54.3 µM (inactive). For the same compound, the GI50 (NCI-H23) was 52.6 µM (inactive), the GI50 (NCI-H460) was > 68.4 µM (inactive) and the GI50 (NCI-H522) was 28.9 µM (inactive). For the same compound, the GI50 (OVCAR-3) was 27.9 µM (inactive), the GI50 (OVCAR-4) was > 73.3 µM (inactive) and the GI50 (OVCAR-5) was > 100 µM (inactive). For the same compound, the GI50 (OVCAR-8) was 42 µM (inactive), the GI50 (RPMI-8226) was 18.4 µM (inactive) and the GI50 (RXF 393) was 23.9 µM (inactive). For the same compound, the GI50 (RXF 631) was 51.5 µM (inactive), the GI50 (SF-268) was 42.3 µM (inactive) and the GI50 (SF-295) was 35.6 µM (inactive). The GI50 (SF-539) was > 100 µM (inactive), the GI50 (SK-MEL-28) was 40.5 µM (inactive) and the GI50 (SK-MEL-2) was 23.4 µM (inactive). For the same compound, the GI50 (SK-MEL-5) was 31 µM (inactive), the GI50 (SK-OV-3) was > 100 µM (inactive) and the GI50 (SN12C) was 64.3 µM (inactive). The GI50 (SNB-19) was 38.5 µM (inactive), the GI50 (SNB-75) was 70.8 µM (inactive) and the GI50 (SNB-78) was > 44.3 µM (inactive). The GI50 (SW-620) was 42.8 µM (inactive), the GI50 (TK-10) was > 100 µM (inactive) and the GI50 (U-251) was 32.3 µM (inactive). For the same compound, the GI50 (UACC-257) was 39.1 µM (inactive), the GI50 (UACC-62) was 56.9 µM (inactive) and the GI50 (UO-31) was 57.9 µM (inactive). For the same compound, the GI50 (XF498) was 27.3 µM (inactive).

In the case of `COc1cc(/C=N/N=C(\N)NO)c([N+](=O)[O-])cc1OC`, the GI50 (786-0) is reported as 29.9 µM (inactive), the GI50 (A498) is reported as 37.7 µM (inactive) and the GI50 (A549) is reported as 26.3 µM (inactive). The GI50 (ACHN) was 14.8 µM (inactive), the GI50 (CAKI-1) was 20.4 µM (inactive) and the GI50 (CCRF-CEM) was 41.6 µM (inactive). The GI50 (COLO 205) was 36.1 µM (inactive), the GI50 (DLD-1) was 56 µM (inactive) and the GI50 (DMS-114) was 6.75 µM (inactive). The GI50 (DMS-273) was 25.9 µM (inactive), the GI50 (EKVX) was 18.1 µM (inactive) and the GI50 (HCC 2998) was 24.2 µM (inactive). The GI50 (HCT-116) was 28.6 µM (inactive), the GI50 (HCT-15) was 22.7 µM and the GI50 (HL-60) was 26.8 µM (inactive). For the same compound, the GI50 (HOP-18) was 21 µM (inactive), the GI50 (HOP-62) was 52.7 µM (inactive) and the GI50 (HOP-92) was 29.2 µM (inactive). For the same compound, the GI50 (HT-29) was 30.1 µM (inactive), the GI50 (IGROV-1) was 53.2 µM (inactive) and the GI50 (K562) was 36.5 µM (inactive). The GI50 (KM-20L2) was 30.1 µM (inactive), the GI50 (KM12) was 44.4 µM (inactive) and the GI50 (LOX IMVI) was 24.2 µM (inactive). For the same compound, the GI50 (LXFL 529) was 27 µM (inactive), the GI50 (M14) was 41.1 µM (inactive) and the GI50 (M19-MEL) was 31.9 µM (inactive). For the same compound, the GI50 (MOLT-4) was 27.1 µM (inactive), the GI50 (Malme-3M) was 59.3 µM (inactive) and the GI50 (NCI-H226) was 14.7 µM (inactive). For the same compound, the GI50 (NCI-H23) was 32.4 µM (inactive), the GI50 (NCI-H460) was 12.6 µM (inactive) and the GI50 (NCI-H522) was 13.3 µM (inactive). For the same compound, the GI50 (OVCAR-3) was 34 µM (inactive), the GI50 (OVCAR-4) was 15.2 µM (inactive) and the GI50 (OVCAR-5) was 37.2 µM (inactive). For the same compound, the GI50 (OVCAR-8) was 31.7 µM (inactive), the GI50 (RPMI-8226) was 73.8 µM (inactive) and the GI50 (RXF 393) was 33.7 µM (inactive). The GI50 (RXF 631) was 26.7 µM (inactive), the GI50 (SF-268) was 25.2 µM (inactive) and the GI50 (SF-295) was 30.6 µM (inactive). For the same compound, the GI50 (SF-539) was 41 µM (inactive), the GI50 (SK-MEL-28) was > 100 µM (inactive) and the GI50 (SK-MEL-2) was 26.5 µM (inactive). The GI50 (SK-MEL-5) was 18 µM (inactive), the GI50 (SK-OV-3) was 23.3 µM (inactive) and the GI50 (SN12C) was 27 µM (inactive). The GI50 (SNB-19) was 79.6 µM (inactive), the GI50 (SNB-75) was 27.5 µM (inactive) and the GI50 (SNB-78) was 76.2 µM (inactive). For the same compound, the GI50 (SR) was 29.2 µM (inactive), the GI50 (SW-620) was 47.9 µM (inactive) and the GI50 (TK-10) was 69.3 µM (inactive). The GI50 (U-251) was 28.3 µM (inactive), the GI50 (UACC-257) was 73.1 µM (inactive) and the GI50 (UACC-62) was 20.6 µM (inactive). The GI50 (UO-31) was 35.7 µM (inactive).

For `COc1ccc(C2C(C#N)=C(O)NC(O)=C2C#N)cc1OC`, the GI50 (A498) was > 100 µM (inactive), the GI50 (A549) was > 100 µM (inactive) and the GI50 (CAKI-1) was > 100 µM (inactive). The GI50 (COLO 205) was > 100 µM (inactive), the GI50 (DMS-273) was > 100 µM (inactive) and the GI50 (EKVX) was > 100 µM (inactive). The GI50 (HCC 2998) was > 100 µM (inactive), the GI50 (HCT-116) was > 100 µM (inactive) and the GI50 (HCT-15) was over 100 µM. The GI50 (HOP-18) was > 100 µM (inactive), the GI50 (HOP-62) was > 100 µM (inactive) and the GI50 (HOP-92) was > 100 µM (inactive). For the same compound, the GI50 (HT-29) was > 100 µM (inactive), the GI50 (IGROV-1) was > 100 µM (inactive) and the GI50 (KM-20L2) was > 100 µM (inactive). For the same compound, the GI50 (KM12) was > 100 µM (inactive), the GI50 (LXFL 529) was > 100 µM (inactive) and the GI50 (M14) was > 100 µM (inactive). For the same compound, the GI50 (M19-MEL) was > 100 µM (inactive), the GI50 (MOLT-4) was > 100 µM (inactive) and the GI50 (Malme-3M) was > 100 µM (inactive). For the same compound, the GI50 (NCI-H522) was > 100 µM (inactive), the GI50 (OVCAR-3) was > 100 µM (inactive) and the GI50 (OVCAR-5) was > 100 µM (inactive). For the same compound, the GI50 (OVCAR-8) was > 100 µM (inactive), the GI50 (RPMI-8226) was > 100 µM (inactive) and the GI50 (RXF 631) was > 100 µM (inactive). For the same compound, the GI50 (SF-268) was > 100 µM (inactive), the GI50 (SF-295) was > 100 µM (inactive) and the GI50 (SF-539) was > 100 µM (inactive). For the same compound, the GI50 (SK-MEL-28) was > 100 µM (inactive), the GI50 (SK-MEL-2) was > 100 µM (inactive) and the GI50 (SK-MEL-5) was > 100 µM (inactive). The GI50 (SK-OV-3) was > 100 µM (inactive), the GI50 (SN12C) was > 100 µM (inactive) and the GI50 (SNB-19) was > 100 µM (inactive). For the same compound, the GI50 (SNB-75) was > 100 µM (inactive), the GI50 (SNB-78) was > 100 µM (inactive) and the GI50 (SR) was > 100 µM (inactive). The GI50 (SW-620) was > 100 µM (inactive), the GI50 (U-251) was > 100 µM (inactive) and the GI50 (UO-31) was > 100 µM (inactive). For the same compound, the GI50 (XF498) was > 100 µM (inactive).
